# “And” between values parts separate entries of the source, which are not always exact repeats. Equal entries are not always repeated. “Also recorded” adds a separate entry of the source. Where two headings read alike, the source gives them in different places.
# Key:
# [1] = Plasma and urine pharmacokinetics, phase IIa study in women with acute uUTI; type: in vivo, human; details: for Cmax: read-out: Plasma Cmax, Geometric Mean (% CVb); for AUC: po, uUTI patients, read-out: urine AUC[0-tau]
# Experimental: Bronchoalveolar lavage samples were collected to determine gepotidacin exposures in ELF and AM following a single 1000 mg IV infusion over 2 hours to healthy subjects. Saliva exposure was assessed in healthy volunteers following 1500 mg oral single dose. Gepotidacin exposures in urine was assessed in women with acute uUTI following 1500 mg BID oral doses for 5 days.
# (§1) This phase IIa single center study evaluated the safety, tolerability, pharmacokinetics, and efficacy of oral gepotidacin 1500 mg BID for 5 days in female subjects with acute cystitis. Clean catch mid-stream urine specimens were obtained for quantitative culture by standard methods. Urine samples were taken from all participants pre-treatment (baseline) and at all post-baseline visits. All urine samples were sent to a central laboratory (PPD Global Clinical Laboratories, Highland Heights, Ky., USA) for Gram stain, quantitative culture, pathogen identification and susceptibility testing. See FIG. 1 for participant disposition and study outline.
# (§2) Serial blood and urine PK sampling were performed for the first dose of study treatment on Day 1 and for the time-matched dose on Day 4. Participants took all doses of gepotidacin with food and remained in the clinic to complete a total of 10 doses. Participants were instructed to return for the TOC (Day 10 to 13) and Follow-up (Day 28±3) Visits.
# For pharmacokinetic assessments, serial blood and urine samples for the assessment of gepotidacin PK concentrations were collected out to 12 hours post dose (T) following the morning dose on Days 1 and 4. CT (trough) concentrations were collected on Days 1-5. PK concentrations of gepotidacin in plasma and urine were measured using a validated LC-MS/MS bio-analytical assay.
# E. coli = test: Gepotidacin MIC90 for common uUTI pathogens (stated in conclusions); type: cell-based; details: Escherichia coli
# Providencia rettgeri = test: MIC, Example 5 Method 1; type: cell-based; details: at least one isolate tested
# [2] = Phase IIa safety and tolerability; type: in vivo, human
# Experimental: as §1, §2
# [3] = system: Staphylococcus saprophyticus; test: MIC by CLSI broth microdilution, Example 1 Method 1; type: cell-based
# Experimental: Unless otherwise stated, the Clinical and Laboratory Standards Institute (CLSI) recommended procedure is as set out in the edition of CLSI Approved Standard […]. Methods for Dilution Antimicrobial Susceptibility Tests for Bacteria That Grow Aerobically” at the time of testing. Antimicrobial activity was determined by broth microdilution using the CLSI recommended procedure. Gepotidacin was tested in serial two-fold dilutions and the minimum inhibitory concentration (MIC) was determined as the lowest concentration of the compound that inhibited visible growth. Gepotidacin was tested against 28 strains of Staphylococcus saprophyticus collected from multiple hospitals. Amoxicillin, azithromycin, levofloxacin and cefuroxime were included as comparators. MICs for gepotidacin and comparators were determined by broth microdilution according to CLSI methods.
# [4] = system: gram-negative and gram-positive anaerobes tested; test: MIC by CLSI agar dilution, Example 6 Method 1; type: cell-based
# Experimental: (§3) Antimicrobial activity was determined by agar dilution using the Clinical and Laboratory Standards Institute (CLSI) recommended procedure.
# (§4) The compounds were tested in serial two-fold dilutions and the minimum inhibitory concentration (MIC) was determined as the lowest concentration of the compound that inhibited visible growth. Gepotidacin was tested against 333 gram-negative anaerobic and 203 gram-positive anaerobic isolates collected from clinical samples in North America and Europe from 2000 to 2017; the majority collected from 2013 to 2016.
# (§5) Ceftriaxone, clindamycin, imipenem, metronidazole, moxifloxacin and piperacillin/tazobactam were included as comparators.
# (§6) Additional analysis was performed from the results of the study described in Method 1 above, to determine the in vitro activity of gepotidacin against gram-negative and gram-positive anaerobic organisms with resistance to ceftriaxone, clindamycin, imipenem, metronidazole, moxifloxacin and piperacillin/tazobactam.
# Veillonella spp. = test: MIC by CLSI agar dilution, Example 6 Method 1; type: cell-based
# Experimental: as §3, §4, §5, §6
# Eubacterium spp. = test: MIC by CLSI agar dilution, Example 6 Method 1; type: cell-based
# Experimental: as §3, §4, §5, §6
# Eggerthella lenta = test: MIC by CLSI agar dilution, Example 6 Method 1; type: cell-based
# Experimental: as §3, §4, §5, §6
# N. gonorrhoeae = test: MIC by CLSI agar dilution, Example 1 Method 2; type: cell-based, Neisseria gonorrhoeae; details: n = 95
# Experimental: (§7) Antimicrobial activity was determined in a second study by […] using the CLSI recommended procedure in serial two-fold dilutions and the minimum inhibitory concentration (MIC) was determined as the lowest concentration of the compound that inhibited visible growth.
# (§8) MICs were determined according to CLSI agar dilution guidelines.
# A. baumannii = test: MIC by CLSI agar dilution, Example 1 Method 2; type: cell-based, Acinetobacter baumannii; details: n = 60
# Experimental: as §7, §8
smiles,measurement,setting,value
"O=c1ccc2ncc(=O)n3c2n1C[C@H]3CN1CCC(NCc2cc3c(cn2)OCCC3)CC1 [gepotidacin, (2R)-2-({4-[(3,4-dihydro-2H-pyrano[2,3-c]pyridin-6-ylmethyl)amino]-1-piperidinyl}methyl)-1,2-dihydro-3H,8H-2a,5,8a-triazaacenaphthylene-3,8-dione]",accumulation in plasma following BID dosing (based on AUC),[1]; 1500 mg BID oral,1.4 fold
same,dose excreted in urine over the 12-hour dosing interval,[1]; Day 1,Approximately 20%
same,"Plasma CT, Geometric Mean (% CVb)",[1]; Day 4,0.851 (41.1) [n = 21] μg/mL
same,"Urine CT, Geometric Mean (% CVb)",[1]; Day 4,327 (248.7) [n = 21] μg/mL
same,dose excreted in urine over the 12-hour dosing interval,[1]; Day 4,31%
same,Steady state attained by,[1]; based on trough plasma concentrations,≤ 3 days
same,concentration at 12 h,"[1]; female, human, in vivo, over the 12-hour dosing interval, 1500 mg BID oral, read-out: minimum / steady-state trough urine concentrations (remained above a MIC of)",> 4000 ng/mL
same,AUC(0-t),"[1]; female, human, plasma, oral, 1500 mg, Day 1, read-out: Plasma AUC(0-T), Geometric Mean (% CVb)",20.2 µg·h/mL
same,Cmax,"[1]; female, human, plasma, oral, 1500 mg, Day 1",5890 ng/mL
same,AUC(0-t),"[1]; female, human, plasma, oral, 1500 mg, Day 4, read-out: Plasma AUC(0-T), Geometric Mean (% CVb)",29.3 µg·h/mL
same,Cmax,"[1]; female, human, plasma, oral, 1500 mg, Day 4",8440 ng/mL
same,Tmax,"[1]; female, human, plasma, oral, 1500 mg, plasma, Day 1, read-out: median Tmax",1.5 h
same,Tmax,"[1]; female, human, plasma, oral, 1500 mg, plasma, Day 4, read-out: median Tmax",1.92 h
same,Tmax,"[1]; female, human, plasma, oral, 1500 mg, plasma, Days 1 and 4, read-out: median Tmax values",1.5 to 1.92 h
same,half-life,"[1]; female, human, plasma, oral, 1500 mg, read-out: effective elimination half-life (converted)",6.6 h
same,AUC(0-t),"[1]; female, human, urine, oral, 1500 mg, Day 1, read-out: Urine AUC(0-T), Geometric Mean (% CVb)",3740 µg·h/mL
same,AUC(0-t),"[1]; female, human, urine, oral, 1500 mg, Day 4, read-out: Urine AUC(0-T), Geometric Mean (% CVb)",5970 µg·h/mL
same,AUC(0-t),"[1]; female, human, urine, oral, 1500 mg, steady state, Day 4, read-out: Urinary AUC(0-24)",11900 µg·h/mL
same,Kp,"[1]; female, human, urine, oral, 1500 mg, read-out: Steady-state urine exposures (AUC[0-24]) exceeded free plasma exposures by",~300
same,AUC,"[1]; female, human, urine, 1500 mg, Day 1, 1500 mg BID oral",3740 µg·h/mL
same,AUC,"[1]; female, human, urine, 1500 mg, Day 4, 1500 mg BID oral",5970 µg·h/mL
same,Urine Ctau,"[1]; from Day 3 onwards, 1500 mg BID oral",322 to 352 µg/mL
same,renal excretion,[1]; healthy subjects (comparison),7.5 % of dose
same,free plasma AUC(0-24),"[1]; steady state, Day 4",39.4 µg·h/mL and 39.3 µg·h/mL
same,renal excretion,[1]; uUTI participants,20 % of dose
same,MIC90,E. coli,4 µg/mL
same,MIC,Providencia rettgeri,8 µg/mL
same,"Back pain, n (%)",[2]; N = 22,2 (9)
same,"Chest discomfort, n (%)",[2]; N = 22,2 (9)
same,"Gastrointestinal disorders, n (%)",[2]; N = 22,21 (95)
same,"General disorders and administration site conditions, n (%)",[2]; N = 22,2 (9)
same,"Headache, n (%)",[2]; N = 22,5 (23)
same,"Infections and infestations, n (%)",[2]; N = 22,6 (27)
same,"Nervous system disorders, n (%)",[2]; N = 22,5 (23)
same,"Viral upper respiratory tract infection, n (%)",[2]; N = 22,2 (9)
same,"Vomiting, n (%)",[2]; N = 22,5 (23)
same,"Vulvovaginal mycotic infection, n (%)",[2]; N = 22,2 (9)
same,"Any adverse event, n (%)","[2]; N = 22, 1500 mg BID 5 days",21 (95)
same,"Musculoskeletal and connective tissue disorders, n (%)","[2]; female, human, in vivo, 5 days",3 (14)
same,"safety laboratory parameters, vital signs, ECG",[2]; in vivo,no clinically relevant trends; also recorded: no clinically significant changes
same,withdrawals or study treatment discontinuations due to AEs,[2]; in vivo,No withdrawal due to AE; also recorded: no withdrawals or study treatment discontinuations due to AEs
same,Episodes of vomiting considered drug related,"[2]; mild or moderate, not treatment limiting",4 participants
same,intensity of GI AEs,"[2]; onset at day 1, improving upon repeat dosing",mild or moderate
same,tolerability,[2]; oral 1500 mg BID for 5 days,tolerated with no dose-limiting AEs
same,MIC90,[3]; 28 isolates,0.125 µg/mL
same,MIC90,[3]; conclusion to Methods 1 and 2,0.12 µg/mL
same,MIC,[4],≤ 2 µg/mL
same,MIC90,"[4]; 333 gram-negative and 203 gram-positive anaerobic isolates, per pathogen group",≤ 4 µg/mL
same,MIC,"[4]; Bacteroides caccae, read-out: MICs",≤ 4 µg/mL
same,MIC90,"Veillonella spp.; Veillonella, 25 isolates, read-out: Gepotidacin MIC90",0.12 µg/mL
same,Gepotidacin MIC range,"Veillonella spp.; clindamycin R, 5 isolates",0.125 µg/mL
same,Gepotidacin MIC range,"Veillonella spp.; moxifloxacin R, 3 isolates",≤0.015 to 0.03 µg/mL
same,MIC90,"Eubacterium spp.; Eubacterium, 31 isolates, read-out: Gepotidacin MIC90",2 µg/mL
same,Gepotidacin MIC range,"Eubacterium spp.; moxifloxacin R, 3 isolates",0.25 to 2 µg/mL
same,MIC90,"Eggerthella lenta; Eggerthella lenta, 21 isolates, read-out: Gepotidacin MIC90",4 µg/mL
same,Gepotidacin MIC range,"Eggerthella lenta; ceftriaxone R, 19 isolates",0.06 to 32 µg/mL
same,Gepotidacin MIC range,"Eggerthella lenta; clindamycin R, 3 isolates",1 to 4 µg/mL
same,Gepotidacin MIC range,"Eggerthella lenta; moxifloxacin R, 6 isolates",1 to 32 µg/mL
same,MIC50,N. gonorrhoeae; Neisseria gonorrhoeae,0.25 µg/mL
same,MIC90,N. gonorrhoeae; Neisseria gonorrhoeae,1 µg/mL
same,Number of Isolates at Gepotidacin MIC 0.5 mg/L,N. gonorrhoeae,6
same,Number of Isolates at Gepotidacin MIC 1 mg/L,N. gonorrhoeae,6
same,Number of Isolates at Gepotidacin MIC 2 mg/L,N. gonorrhoeae,4
same,Number of Isolates at Gepotidacin MIC ≤0.25 mg/L,N. gonorrhoeae,79
same,MIC50,A. baumannii; Acinetobacter baumannii,32 µg/mL
same,MIC90,A. baumannii; Acinetobacter baumannii,64 µg/mL
same,Number of Isolates at Gepotidacin MIC 8 mg/L,A. baumannii,7
same,Number of Isolates at Gepotidacin MIC ≥16 mg/L,A. baumannii,53

# Reference: patent US20220184071A1, “GEPOTIDACIN FOR USE IN THE TREATMENT OF BACTERIAL URINARY TRACT INFECTIONS” (GlaxoSmithKline Intellectual Property Development Limited, priority 2019, published 2022)
